Data set [1] is described as follows: Oral bioavailability in C57/BI mouse at 10 mg/kg measured upto 24 hrs by LC-MS/MS analysis. The class given is ADME, organism-based. The conditions noted are these: in vivo.
The nature of data set [2]: AUC (0 to infinity) in Wistar Han rat at 10 mg/kg, po measured upto 24 hrs by LC-MS/MS analysis. Conditions: in vivo. The class given is ADME, organism-based. Further details: dose 10 mg/kg, time < 24 hrs, route po.
Data set [3] can be described thus: Volume of distribution at steady state in C57/BI mouse at 10 mg/kg, po or 2 mg/kg, iv measured upto 24 hrs by LC-MS/MS analysis. It counts as ADME, organism-based. Conditions: in vivo.
The nature of data set [4]: Half life in C57/BI mouse at 2 mg/kg, iv measured upto 24 hrs by LC-MS/MS analysis. It counts as ADME, organism-based. Conditions: in vivo.
A short description of data set [5]: Half life in Wistar Han rat at 10 mg/kg, po measured upto 24 hrs by LC-MS/MS analysis. The conditions noted are these: in vivo. It counts as ADME, organism-based.
Data set [6] can be described thus: Half life in C57/BI mouse at 10 mg/kg, po measured upto 24 hrs by LC-MS/MS analysis. It counts as ADME, organism-based. Conditions: in vivo.
In data set [7] the target is 3',5'-cyclic-AMP phosphodiesterase 4D (Homo sapiens) (UniProt Q08499). Briefly: Inhibition of PDE4D (unknown origin) at 64 uM relative to control.
Data set [8] in a line: AUC (0 to infinity) in Wistar Han rat at 1 mg/kg, po measured upto 24 hrs by LC-MS/MS analysis. It counts as ADME, organism-based. The conditions noted are these: in vivo. Details: time < 24 hrs, dose 1 mg/kg, route po.
Data set [9] can be described thus: Half life in C57/BI mouse at 1 mg/kg, po measured upto 24 hrs by LC-MS/MS analysis. The class given is ADME, organism-based. The conditions noted are these: in vivo.
Data set [10] deals with T1, Protein deacetylase HDAC6 (Homo sapiens, UniProt Q9UBN7).
T1 sequence (Q9UBN7 whole entry): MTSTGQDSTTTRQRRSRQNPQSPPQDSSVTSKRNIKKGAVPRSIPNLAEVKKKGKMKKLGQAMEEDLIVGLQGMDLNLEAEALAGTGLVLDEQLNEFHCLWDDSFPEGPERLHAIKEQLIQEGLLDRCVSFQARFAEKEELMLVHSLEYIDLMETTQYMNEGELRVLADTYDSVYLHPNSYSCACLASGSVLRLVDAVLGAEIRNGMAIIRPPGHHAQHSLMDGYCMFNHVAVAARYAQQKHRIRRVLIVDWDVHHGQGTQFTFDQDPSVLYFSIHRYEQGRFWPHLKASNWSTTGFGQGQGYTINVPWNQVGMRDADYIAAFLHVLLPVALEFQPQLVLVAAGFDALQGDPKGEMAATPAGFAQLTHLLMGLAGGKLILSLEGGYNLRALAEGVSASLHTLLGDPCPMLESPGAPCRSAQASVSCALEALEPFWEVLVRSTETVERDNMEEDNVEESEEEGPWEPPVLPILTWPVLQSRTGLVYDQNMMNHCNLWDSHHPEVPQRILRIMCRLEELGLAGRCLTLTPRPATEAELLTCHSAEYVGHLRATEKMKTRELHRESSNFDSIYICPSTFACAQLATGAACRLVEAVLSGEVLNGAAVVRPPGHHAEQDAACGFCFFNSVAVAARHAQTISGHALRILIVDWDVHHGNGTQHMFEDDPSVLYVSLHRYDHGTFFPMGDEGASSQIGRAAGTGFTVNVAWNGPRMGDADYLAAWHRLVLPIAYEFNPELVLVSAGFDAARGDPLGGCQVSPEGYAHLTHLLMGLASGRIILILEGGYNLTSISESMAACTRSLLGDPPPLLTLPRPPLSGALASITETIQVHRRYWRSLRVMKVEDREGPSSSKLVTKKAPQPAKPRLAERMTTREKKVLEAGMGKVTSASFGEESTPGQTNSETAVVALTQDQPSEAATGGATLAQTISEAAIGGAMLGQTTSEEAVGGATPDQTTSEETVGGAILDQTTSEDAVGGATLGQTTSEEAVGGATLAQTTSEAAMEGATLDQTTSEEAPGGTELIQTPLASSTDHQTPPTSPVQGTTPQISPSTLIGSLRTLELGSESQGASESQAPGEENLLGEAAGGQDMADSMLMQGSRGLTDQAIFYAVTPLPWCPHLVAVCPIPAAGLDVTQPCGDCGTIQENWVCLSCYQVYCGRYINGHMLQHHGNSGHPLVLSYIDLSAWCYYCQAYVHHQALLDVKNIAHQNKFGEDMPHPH
The data set is described as follows: Inhibition of HDAC6 (unknown origin) incubated for 20 hrs.

Data set [11] can be described thus: Plasma protein binding in rat assessed as unbound fraction. It counts as ADME, cell-free.
Data set [12] deals with Sodium-dependent noradrenaline transporter. Briefly: Inhibition of NET (unknown origin) at 49 uM relative to control. The conditions noted are these: Homo sapiens.
Data set [13] is described as follows: Oral bioavailability in C57/BI mouse at 1 mg/kg measured upto 24 hrs by LC-MS/MS analysis. Conditions: in vivo. It counts as ADME, organism-based.
A short description of data set [14]: Volume of distribution at steady state in C57/BI mouse at 1 mg/kg, po or 0.5 mg/kg, iv measured upto 24 hrs by LC-MS/MS analysis. The class given is ADME, organism-based. Conditions: in vivo.
Data set [15] in a line: Oral bioavailability in Wistar Han rat at 1 mg/kg measured upto 24 hrs by LC-MS/MS analysis. It counts as ADME, organism-based. The conditions noted are these: in vivo.
A short description of data set [16]: Clearance in C57/BI mouse at 0.5 mg/kg, iv measured upto 24 hrs by LC-MS/MS analysis. The conditions noted are these: in vivo. The class given is ADME, organism-based.
Data set [17] has as its target T1, Protein deacetylase HDAC6. Briefly: Inhibition of HDAC6 (unknown origin) incubated for 30 mins.
A short description of data set [18]: AUC (0 to infinity) in C57/BI mouse at 1 mg/kg, po measured upto 24 hrs by LC-MS/MS analysis. The class given is ADME, organism-based. Details: time < 24 hrs, dose 1 mg/kg, route po. Conditions: in vivo.
In data set [19] the target is GABA-A receptor; anion channel (Homo sapiens) (UniProt P14867+P47870+P18507+P28472+P48169+Q99928+Q9UN88+P34903+O00591+O14764+Q8N1C3+P18505+P78334+P47869+P31644+Q16445). Briefly: Inhibition of GABAA (unknown origin) at 34 uM relative to control. The class given is protein-complex assay.
The nature of data set [20]: Half life in C57/BI mouse at 0.5 mg/kg, iv measured upto 24 hrs by LC-MS/MS analysis. Conditions: in vivo. It counts as ADME, organism-based.
Data set [21] concerns the target cAMP and cAMP-inhibited cGMP 3',5'-cyclic phosphodiesterase 10A (Homo sapiens) (UniProt Q9Y233). Briefly: Inhibition of PDE10A2 (unknown origin) at 91 uM relative to control.
The nature of data set [22]: Half life in Wistar Han rat at 1 mg/kg, po measured upto 24 hrs by LC-MS/MS analysis. It counts as ADME, organism-based. Conditions: in vivo.

The source of these data is ChEMBL document CHEMBL5370608, “Selective and Bioavailable HDAC6 2-(Difluoromethyl)-1,3,4-oxadiazole Substrate Inhibitors and Modeling of Their Bioactivation Mechanism” (J Med Chem, 2023).

The structures appear in SMILES notation. Activity calls are given as the source filed them. The rule behind the calls is not given here.

Chain of cAMP and cAMP-inhibited cGMP 3',5'-cyclic phosphodiesterase 10A (Homo sapiens) (Q9Y233 whole entry): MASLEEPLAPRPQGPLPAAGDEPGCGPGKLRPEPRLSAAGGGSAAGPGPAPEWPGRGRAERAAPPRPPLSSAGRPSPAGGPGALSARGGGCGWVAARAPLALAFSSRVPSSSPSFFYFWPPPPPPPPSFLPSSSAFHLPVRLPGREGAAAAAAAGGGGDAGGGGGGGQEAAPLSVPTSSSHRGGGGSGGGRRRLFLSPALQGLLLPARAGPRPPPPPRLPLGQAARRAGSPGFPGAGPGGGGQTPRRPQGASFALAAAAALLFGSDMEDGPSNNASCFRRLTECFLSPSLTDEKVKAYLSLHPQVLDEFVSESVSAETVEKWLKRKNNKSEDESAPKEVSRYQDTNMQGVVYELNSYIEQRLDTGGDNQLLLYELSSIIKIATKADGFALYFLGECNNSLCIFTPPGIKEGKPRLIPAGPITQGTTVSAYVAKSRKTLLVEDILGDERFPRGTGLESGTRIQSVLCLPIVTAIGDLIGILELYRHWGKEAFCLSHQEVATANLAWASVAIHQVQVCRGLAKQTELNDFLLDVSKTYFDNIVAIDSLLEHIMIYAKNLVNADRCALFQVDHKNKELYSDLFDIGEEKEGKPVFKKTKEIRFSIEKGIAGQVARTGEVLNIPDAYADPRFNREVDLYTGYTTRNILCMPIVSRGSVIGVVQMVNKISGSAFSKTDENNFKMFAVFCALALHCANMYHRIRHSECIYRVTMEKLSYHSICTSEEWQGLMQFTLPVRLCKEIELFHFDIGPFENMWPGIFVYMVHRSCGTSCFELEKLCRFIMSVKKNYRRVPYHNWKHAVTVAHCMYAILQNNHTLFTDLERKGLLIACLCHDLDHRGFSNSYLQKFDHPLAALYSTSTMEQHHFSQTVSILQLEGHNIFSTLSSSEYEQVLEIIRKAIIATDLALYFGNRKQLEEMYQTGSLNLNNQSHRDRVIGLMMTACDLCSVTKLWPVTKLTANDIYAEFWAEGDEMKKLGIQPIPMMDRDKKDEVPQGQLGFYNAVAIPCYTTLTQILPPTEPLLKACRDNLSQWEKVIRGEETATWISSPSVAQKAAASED
Chain of 3',5'-cyclic-AMP phosphodiesterase 4D (Homo sapiens) (Q08499 whole entry): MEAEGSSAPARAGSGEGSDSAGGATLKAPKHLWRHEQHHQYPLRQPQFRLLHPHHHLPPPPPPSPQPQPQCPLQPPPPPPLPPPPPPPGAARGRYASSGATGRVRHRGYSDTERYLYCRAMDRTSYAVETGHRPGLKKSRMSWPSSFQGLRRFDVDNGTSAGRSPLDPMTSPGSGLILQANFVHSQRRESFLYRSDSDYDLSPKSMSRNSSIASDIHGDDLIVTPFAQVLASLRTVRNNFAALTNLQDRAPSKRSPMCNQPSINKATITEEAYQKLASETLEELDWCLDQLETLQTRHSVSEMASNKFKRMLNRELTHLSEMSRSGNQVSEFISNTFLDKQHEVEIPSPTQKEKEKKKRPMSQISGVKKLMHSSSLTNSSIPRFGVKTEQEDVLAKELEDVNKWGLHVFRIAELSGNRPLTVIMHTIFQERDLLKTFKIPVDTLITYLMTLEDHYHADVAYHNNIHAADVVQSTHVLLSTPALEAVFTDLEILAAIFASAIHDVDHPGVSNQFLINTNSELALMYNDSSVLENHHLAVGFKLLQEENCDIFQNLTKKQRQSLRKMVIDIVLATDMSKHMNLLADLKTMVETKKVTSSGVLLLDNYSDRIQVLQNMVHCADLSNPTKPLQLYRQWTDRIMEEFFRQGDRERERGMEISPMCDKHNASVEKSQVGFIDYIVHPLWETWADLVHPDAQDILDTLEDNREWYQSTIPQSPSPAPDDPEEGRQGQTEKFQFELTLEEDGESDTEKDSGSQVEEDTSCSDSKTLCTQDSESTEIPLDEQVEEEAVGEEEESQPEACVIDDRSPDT

What is called AUC(0-inf) is the area under the concentration-time curve extrapolated to infinity. Low values mean low exposure, high ones high exposure. One may read the half-life as how long it takes for the measured level to halve. Higher therefore signals slow loss. As for `O=C(NO)c1cnc(NC2(c3ccccc3)CCC(F)(F)CC2)nc1`, the bioavailability in [1] came to 12%. This molecule also came in with an AUC(0-inf) in [2] of 0.05 µM·h. In data set [3], the Vdss stood at 1.6 L/kg. Further, the half-life is 0.2 h in data set [4], 2.1 h in [5] and 1.7 h in [6].

For orientation: IC50 means the concentration that inhibits the measured activity by half. Lower therefore signals greater potency. For orientation: fraction unbound means free concentration divided by total concentration. What is called clearance is the rate of elimination divided by the concentration. With `FC(F)c1nnc(-c2ccc(Cn3nnc(-c4ccccn4)n3)nc2)o1`, the inhibition result in [7], in [12], in [19] and in data set [21] was “Active” each time. For the same molecule, the total exposure AUC(0-inf) is 15 µM·h in [8] and 21 µM·h in data set [18]. The half-life was 5.3 h in [9], 4.7 h in [20] and 10 h in data set [22]. Moreover, the half-inhibitory concentration (IC50) in data set [10] stood at 1 nM; in data set [17], 27 nM. Also, in [11], the free fraction (fraction unbound) stood at 0.38. Further, the results for the bioavailability in data set [13] and in [15] were 110% and 100%, respectively. Also, the Vdss in [14] is 0.9 L/kg. The clearance in [16] was 2.4 mL/min/kg.
